Laboratory results taken from paper PMC8322070, “A novel orally active HDAC6 inhibitor T-518 shows a therapeutic potential for Alzheimer’s disease and tauopathy in mice” (Scientific Reports, 2021).

Molecular target: T1, human HDAC6 (Homo sapiens, UniProt Q9UBN7)
T1 construct: purchased SignalChem Pharmaceutical Inc
T1 sequence (Q9UBN7 1-1215): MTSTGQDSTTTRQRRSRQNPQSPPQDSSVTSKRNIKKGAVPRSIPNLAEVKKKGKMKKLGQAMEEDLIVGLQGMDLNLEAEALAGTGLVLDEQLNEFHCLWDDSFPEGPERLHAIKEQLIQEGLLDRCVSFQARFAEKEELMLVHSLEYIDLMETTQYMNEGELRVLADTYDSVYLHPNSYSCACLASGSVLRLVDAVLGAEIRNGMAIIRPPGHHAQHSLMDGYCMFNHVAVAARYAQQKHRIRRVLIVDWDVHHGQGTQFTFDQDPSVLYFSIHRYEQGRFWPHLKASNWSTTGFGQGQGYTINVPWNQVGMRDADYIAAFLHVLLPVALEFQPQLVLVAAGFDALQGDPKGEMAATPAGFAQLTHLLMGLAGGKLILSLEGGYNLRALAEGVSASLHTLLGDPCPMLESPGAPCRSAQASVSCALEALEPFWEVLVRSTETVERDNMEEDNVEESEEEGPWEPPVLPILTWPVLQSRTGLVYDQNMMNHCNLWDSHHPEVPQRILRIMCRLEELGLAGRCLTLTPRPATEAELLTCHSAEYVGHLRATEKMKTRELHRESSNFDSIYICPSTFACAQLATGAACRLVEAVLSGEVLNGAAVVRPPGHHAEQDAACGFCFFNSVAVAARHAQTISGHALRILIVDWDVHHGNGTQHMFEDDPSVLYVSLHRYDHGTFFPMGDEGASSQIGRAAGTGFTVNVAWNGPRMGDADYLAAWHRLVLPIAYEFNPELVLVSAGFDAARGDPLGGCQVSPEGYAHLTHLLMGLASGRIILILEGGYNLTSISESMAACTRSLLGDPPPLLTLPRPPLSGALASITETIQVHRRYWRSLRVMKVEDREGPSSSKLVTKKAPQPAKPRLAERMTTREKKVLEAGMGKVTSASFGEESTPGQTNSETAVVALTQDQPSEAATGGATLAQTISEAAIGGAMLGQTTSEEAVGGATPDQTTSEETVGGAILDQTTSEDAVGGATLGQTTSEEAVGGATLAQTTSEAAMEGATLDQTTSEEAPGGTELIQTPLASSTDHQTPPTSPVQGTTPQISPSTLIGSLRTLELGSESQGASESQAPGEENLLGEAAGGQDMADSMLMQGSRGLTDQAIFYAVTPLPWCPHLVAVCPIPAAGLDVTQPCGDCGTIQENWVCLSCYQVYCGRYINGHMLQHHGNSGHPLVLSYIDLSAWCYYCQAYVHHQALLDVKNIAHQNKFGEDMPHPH
Test: HDAC enzyme assay (HDAC-Glo I/II), HDAC6
Assay type: biochemical
Method: Recombinant HDAC6, HDAC7, HDAC1 were obtained from SignalChem Pharmaceutical Inc. (Richmond, BC, Canada), and recombinant human HDAC4 was prepared at Takeda pharmaceutical company. One μL of T-518 diluted with DMSO was added to 75 μL of assay buffer (24 mM Tris–HCl (pH 7.5), 135 mM NaCl, 0.35 mM KCl, 1 mM MgCl2, 0.01% Tween 20, 0.6 mM GSH) in 384 well plates. Two μL of diluted compounds were added to 384 well plates and 2 μL of recombinant HDAC enzymes was added and then centrifuged at 1000 rpm for 10 s. The final concentrations of each HDAC enzyme were as follows, human HDAC1, 170 pM; human HDAC6, […]; human HDAC4, 68 pM; human HDAC7, 13 pM. After incubation for 60 min at room temperature, 4 μL of HDAC-Glo reagent [HDAC-Glo I/II (Promega) for HDAC6 and HDAC1, HDAC-Glo class IIa (Promega) for HDAC4 and HDAC7] was added to start the reaction. After incubation for 20 min at room temperature, the luminescence was measured by Envision plate reader (PerkinElmer, Waltham, MA, USA). For experiments under the condition of 0 min preincubation, 4 μL of HDAC-Glo reagent was added at first to the 384 well plates including diluted compounds. […] After centrifugation at 1000 rpm for 10 s. and then incubation for 20 min at room temperature, the luminescence was measured by Envision. […] The inhibitory activity of T-518 was expressed as the value of IC50. […]

Question: Which results are given for `O=C1c2cc(-c3nnc(C(F)F)o3)cnc2CN1[C@@H]1CCCC[C@H]1NC(=O)C(F)(F)C(F)(F)F` [T-518, N-[(1R,2R)-2-{3-[5-(difluoromethyl)-1,3,4-oxadiazol-2-yl]-5-oxo-5H,6H,7H-pyrrolo[3,4-b]pyridin-6-yl}cyclohexyl]-2,2,3,3,3-pentafluoropropanamide]?
Answer: IC50 (after 60 min of pre-incubation): 4.6 nM; IC50 (without pre-incubation): 36 nM
